This passage reports IC50 results from paper PMC7238114, “L-Type Amino Acid Transporter 1-Utilizing Prodrugs of Ketoprofen Can Efficiently Reduce Brain Prostaglandin Levels” (Pharmaceutics, 2020).

Each structure is given as a SMILES string.

For this experiment, the system named is cyclooxygenase (COX; isoform not resolved, COX1/COX2). Put plainly: fluorometric COX peroxidase activity assay (Amplex Red) in BV2 cell lysate. Type of experiment: biochemical.
The IC50 is the concentration at which inhibition is half-maximal. Low readings indicate greater potency in that assay, high ones weaker potency in that assay. For the compound `CC(C(=O)O)c1cccc(C(=O)c2ccccc2)c1` (stereo not drawn) [KPF, ketoprofen], the half-inhibitory concentration (IC50) came out at 0.85 ± 1.18 µM.

For `CC(C(=O)NCCCC[C@H](N)C(=O)O)c1cccc(C(=O)c2ccccc2)c1` (stereo partly drawn) [PD2, pro-drug 2], it took 1.05 ± 1.21 µM to reach half-maximal inhibition (IC50).

Compound `CC(C(=O)NCC[C@H](N)C(=O)O)c1cccc(C(=O)c2ccccc2)c1` (stereo partly drawn) [PD3, pro-drug 3] registered an IC50 of 2.26 ± 1.33 µM.
